Laboratory results: patent US9302999B2, “Substituted triazoles as herbicides” (E. I. DU PONT DE NEMOURS AND COMPANY, priority 2012, dated 2016)

Experiments:
Assay type in all cases: in vivo
[1] = system: foxtail, giant (giant foxtail, Setaria faberii); experiment: Test A pre-/postemergence: foxtail, giant
Outline: (§1)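 Plants in loam–sand blend were treated with test chemicals in non-phytotoxic solvent with surfactant, either as preemergence directed soil spray or postemergence at 2–10 cm, one- to two-leaf stage. After about ten days in greenhouse, injury was rated visually against untreated controls on a 0–100 scale (100 = complete control).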

[2] = system: morningglory (Ipomoea spp.); experiment: Test A pre-/postemergence: morningglory; conditions: for Plant response rating, Morningglory: Preemergence; for Morningglory plant response rating: Postemergence
Outline: as §1

corn (Zea mays) = experiment: Test A pre-/postemergence: corn
Outline: as §1

[3] = system: sedge, umbrella (small-flower umbrella sedge Cyperus difformis); experiment: Test B flooded paddy: sedge, umbrella; conditions: Flood; 250 g ai/ha; applied to paddy water at 2-leaf stage; visually evaluated after 13 to 15 days
Outline: (§2)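 Paddy-water application: seedlings at 2-leaf stage, flood depth 3 cm maintained for the test duration. Evaluation after 13–15 days in the greenhouse by eye relative to controls; 0–100 scale.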

[4] = system: ducksalad (Heteranthera limosa); experiment: Test B flooded paddy: ducksalad; conditions: Flood; 250 g ai/ha; applied to paddy water at 2-leaf stage; visually evaluated after 13 to 15 days
Outline: as §2

[5] = system: ryegrass, Italian (Italian ryegrass, Lolium multiflorum); experiment: Test C pre-/postemergence: ryegrass, Italian
Outline: (§3)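 Preemergence on seeds in loam/sand, postemergence on 2–18 cm (1–4-leaf) plants in peat-based medium; compounds in non-phytotoxic solvent with surfactant. After 13–15 days in greenhouse, visual rating versus controls, 0 (no effect) to 100 (complete control).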

[6] = system: johnsongrass (Sorghum halepense); experiment: Test C pre-/postemergence: johnsongrass
Outline: as §3

kochia (Kochia scoparia) = experiment: Test C pre-/postemergence: kochia; conditions: Postemergence
Outline: as §3

[7] = system: ragweed (common ragweed, Ambrosia elation); experiment: Test C pre-/postemergence: ragweed
Outline: as §3

soybean (Glycine max) = experiment: Test C pre-/postemergence: soybean
Outline: as §3

[8] = system: chickweed (common chickweed, Stellaria media); experiment: Test C postemergence: chickweed
Outline: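 Greenhouse pot test; foliar postemergence treatment at 1- to 4-leaf stage. Rated visually at 13 to 15 days on a 0–100 control scale relative to untreated plants.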

[9] = Postemergence, 125 g ai/ha, 0 to 100 scale, 0 is no effect, 100 is complete control
[10] = Postemergence, 500 g ai/ha, 0 to 100 scale, 0 is no effect, 100 is complete control
[11] = Preemergence, 125 g ai/ha, 0 to 100 scale where 0 is no effect and 100 is complete control
[12] = Preemergence, 500 g ai/ha, 0 to 100 scale (0 no effect, 100 complete control)
[13] = Postemergence, 31 g ai/ha, scale 0 to 100 (0 no effect, 100 complete control)
[14] = Postemergence, 62 g ai/ha, scale 0 to 100 (0 no effect, 100 complete control)
[15] = Postemergence, 125 g ai/ha, scale 0 to 100, 0 no effect, 100 complete control
[16] = Postemergence, 250 g ai/ha, scale 0 to 100 (0 no effect, 100 complete control)
[17] = Preemergence, 31 g ai/ha, scale 0 (no effect) to 100 (complete control)
[18] = Preemergence, 62 g ai/ha, scale of 0 to 100, 0 is no effect, 100 is complete control
[19] = Preemergence, 125 g ai/ha, scale 0 to 100, 0 no effect, 100 complete control
[20] = Preemergence, 250 g ai/ha, scale 0 to 100, 0 no effect, 100 complete control
[21] = 31 g ai/ha, scale 0 to 100 (0 no effect, 100 complete control)
[22] = 62 g ai/ha, scale 0 to 100 (0 no effect, 100 complete control)
[23] = 125 g ai/ha, scale 0 to 100, 0 no effect, 100 complete control
[24] = Postemergence, 500 g ai/ha, visual rating on 0 to 100 scale (0 no effect, 100 complete control), approximately ten days
[25] = Preemergence, 125 g ai/ha, 0 to 100 scale (0 no effect, 100 complete control)
[26] = Preemergence, 500 g ai/ha, 0 to 100 scale, 0 is no effect, 100 is complete control
[27] = Postemergence, 250 g ai/ha, scale 0 to 100

Compound: CCCc1nn(-c2ccc(F)cc2)nc1Oc1ccnc(C(F)(F)F)c1 [Compound 168]
- Plant response rating, Foxtail, Giant [1, 9]: 90
- Foxtail, Giant plant response rating [1, 10]: 90
- Plant response rating, Foxtail, Giant [1, 11]: 100
- Plant response rating, Foxtail, Giant [1, 12]: 100
- Plant response rating, Morningglory ([2]; 125 g ai/ha, 0 to 100 scale where 0 is no effect and 100 is complete control): 20
- Plant response rating, Morningglory ([2]; 500 g ai/ha, 0 to 100 scale (0 no effect, 100 complete control)): 50
- Plant response rating, Corn (corn (Zea mays); [9]): 20
- Corn plant response rating (corn (Zea mays); [10]): 50
- Plant response rating, Corn (corn (Zea mays); [11]): 20
- Plant response rating, Corn (corn (Zea mays); [12]): 40
- Plant response rating, Sedge, Umbrella (0 to 100 scale, 0 is no effect, 100 is complete control) [3]: 85
- Plant response rating, Ducksalad (0 to 100 scale, 0 is no effect, 100 is complete control) [4]: 80
- Plant response rating, Ryegrass, Italian [5, 13]: 10
- Plant response rating, Ryegrass, Italian [5, 14]: 35
- Plant response rating, Ryegrass, Italian [5, 15]: 60
- Plant response rating, Ryegrass, Italian [5, 16]: 80
- Plant response rating, Ryegrass, Italian [5, 17]: 70
- Plant response rating, Ryegrass, Italian [5, 18]: 98
- Plant response rating, Ryegrass, Italian [5, 19]: 100
- Plant response rating, Ryegrass, Italian [5, 20]: 100
- Plant response rating, Johnsongrass [6, 13]: 30
- Plant response rating, Johnsongrass [6, 14]: 55
- Plant response rating, Johnsongrass [6, 15]: 70
- Plant response rating, Johnsongrass [6, 16]: 75
- Plant response rating, Johnsongrass [6, 17]: 75
- Plant response rating, Johnsongrass [6, 18]: 98
- Plant response rating, Johnsongrass [6, 19]: 100
- Plant response rating, Johnsongrass [6, 20]: 100
- Plant response rating, Kochia (kochia (Kochia scoparia); [21]): 90
- Plant response rating, Kochia (kochia (Kochia scoparia); [22]): 90
- Plant response rating, Kochia (kochia (Kochia scoparia); [23]): 90
- Plant response rating, Kochia (kochia (Kochia scoparia); 250 g ai/ha, scale 0 to 100 (0 no effect, 100 complete control)): 90
- Plant response rating, Ragweed [7, 13]: 65
- Plant response rating, Ragweed [7, 14]: 65
- Plant response rating, Ragweed [7, 15]: 65
- Plant response rating, Ragweed [7, 16]: 80
- Plant response rating, Ragweed [7, 17]: 10
- Plant response rating, Ragweed [7, 18]: 30
- Plant response rating, Ragweed [7, 19]: 80
- Plant response rating, Ragweed [7, 20]: 80
- Plant response rating, Soybean (soybean (Glycine max); [13]): 30
- Plant response rating, Soybean (soybean (Glycine max); [14]): 35
- Plant response rating, Soybean (soybean (Glycine max); [15]): 60
- Plant response rating, Soybean (soybean (Glycine max); [16]): 60
- Plant response rating, Soybean (soybean (Glycine max); [17]): 5
- Plant response rating, Soybean (soybean (Glycine max); [18]): 10
- Plant response rating, Soybean (soybean (Glycine max); [19]): 10
- Plant response rating, Soybean (soybean (Glycine max); [20]): 35
- Plant response rating, Chickweed [8, 21]: 80
- Plant response rating, Chickweed [8, 22]: 80
- Plant response rating, Chickweed [8, 23]: 90
- Plant response rating, Chickweed ([8]; 250 g ai/ha, scale 0 to 100): 100

Compound: FC(F)(F)c1ccc(-n2nc(Cl)c(Cc3ccnc(C(F)(F)F)c3)n2)cc1 [Compound 28]
- Foxtail, Giant plant response rating [1, 9]: 90
- Foxtail, Giant plant response rating [1, 24]: 90
- Plant response rating, Foxtail, Giant [1, 25]: 100
- Plant response rating, Foxtail, Giant [1, 26]: 100
- Morningglory plant response rating ([2]; 125 g ai/ha, 0 to 100 scale, 0 is no effect, 100 is complete control): 100
- Morningglory plant response rating ([2]; 500 g ai/ha, visual rating on 0 to 100 scale (0 no effect, 100 complete control), approximately ten days): 100
- Plant response rating, Morningglory ([2]; 125 g ai/ha, 0 to 100 scale (0 no effect, 100 complete control)): 20
- Corn plant response rating (corn (Zea mays); [9]): 30
- Corn plant response rating (corn (Zea mays); [24]): 50
- Plant response rating, Corn (corn (Zea mays); [25]): 20
- Plant response rating, Corn (corn (Zea mays); [26]): 20
- Plant response rating, Sedge, Umbrella (0 to 100 scale, 0 is no effect, 100 is complete control) [3]: 95
- Plant response rating, Ducksalad (0 to 100 scale, 0 is no effect, 100 is complete control) [4]: 95
- Plant response rating, Ryegrass, Italian [5, 13]: 10
- Plant response rating, Ryegrass, Italian [5, 14]: 25
- Plant response rating, Ryegrass, Italian [5, 15]: 25
- Plant response rating, Ryegrass, Italian [5, 27]: 30
- Plant response rating, Johnsongrass [6, 13]: 5
- Plant response rating, Johnsongrass [6, 14]: 5
- Plant response rating, Johnsongrass [6, 15]: 5
- Plant response rating, Johnsongrass [6, 27]: 10
- Plant response rating, Kochia (kochia (Kochia scoparia); [21]): 40
- Plant response rating, Kochia (kochia (Kochia scoparia); [22]): 65
- Plant response rating, Kochia (kochia (Kochia scoparia); [23]): 75
- Plant response rating, Kochia (kochia (Kochia scoparia); 250 g ai/ha, scale 0 to 100): 95
- Plant response rating, Ragweed [7, 13]: 35
- Plant response rating, Ragweed [7, 14]: 60
- Plant response rating, Ragweed [7, 27]: 85
- Plant response rating, Soybean (soybean (Glycine max); [13]): 30
- Plant response rating, Soybean (soybean (Glycine max); [14]): 35
- Plant response rating, Soybean (soybean (Glycine max); [15]): 35
- Plant response rating, Soybean (soybean (Glycine max); [27]): 60
- Plant response rating, Chickweed [8, 21]: 30
- Plant response rating, Chickweed [8, 22]: 55
- Plant response rating, Chickweed [8, 23]: 95
- Plant response rating, Chickweed ([8]; 250 g ai/ha, scale 0 to 100): 100
